Experiments:
[1] = MemTox membrane leakage (AK / α-GST); type: cell-based; conditions: rat, NRK cells, read-out: GST TC50
Protocol: Membrane Leakage (α-Glutathione S-transferase and/or Adenylate Kinase): The presence of Adenylate Kinase (AK) or α-Glutathione S-transferase (α-GST), both enzyme leakage markers, was measured in the culture medium using an activity assay for Adenylate Kinase and/or an ELISA assay for α-GST. At the end of the exposure period, the medium covering the cells in each well was removed and placed into new 96-well plates with appropriate labeling. […] Luminescence (AK) values were measured with a Packard Fusion or equivalent plate reader, and absorbance (α-GST) values were measured with a Packard SpectraCount™ or equivalent reader at 450 nm and reference absorbance at 650 nm.
Membrane Leakage (α-Glutathione S-transferase and/or Adenylate Kinase): Leakage of Adenylate Kinase or α-GST from the cell into the culture medium was determined by collecting the culture medium at the end of the exposure period. Thus, the values measured represent total enzyme leakage lost over the exposure period. The control for 100% dead or maximum enzyme release was based on cells treated with 1 mM digitonin at the time of dosing. Percent dead cells relative to digitonin treated cells was determined and then subtracted from 100% to yield the percent live cells.
The third experiment was done to evaluate the specificity and selectivity of the test compound in another non-tumor cell that was derived from normal rat kidney tissue. In this experiment the test compound has no effect on cell number of acute cell death up to the 500 dilution after 6 and 24 hr of exposure (FIG. 76C and 77C). Significant effects were observed on mitochondrial markers at dilutions that dropped pH to 3.7. The bar graph in FIG. 82 summarizes these effects. […] In contrast the rat tumor cell line was sensitive to the test compound and cell death occurred at the 500 dilution and could not be attributed to low pH.

NHEM cells = experiment: Predicted Ctox from Tox-Panel; type: cell-based, human; conditions: 24 HR
Protocol: Studies such as these indicate that a preferred concentration for setting Ctox is the highest concentration at which there is no observed effect on any of the indicators being measured in the cluster analysis, especially a 24-hour cluster analysis. […] It will be apparent that 24 hour assays are more time-effective, and consequently, the 24 hour NOEL/Ctox represents a preferred data point to select as Ctox in a CATS assay. It will also be apparent that, with further time studies, it may be possible to select an equally suitable Ctox at other CATS assay time points (e.g., between 24 and 72 hours, or less than 24 hours).
In certain embodiments, the predicting comprises performing concentration response analyses of measurements from at least three separate assays that are employed in the cluster analysis. For example, in the cell health cluster, such predicting will involve monitoring the concentration response effect of the compound on a first health indicator which monitors cellular replication, a second cell health indicator which monitors mitochondrial function, and a third cell health indicator which monitors membrane integrity. Of course, it is understood that fourth, fifth, sixth or more cell health indicators also may be employed. From these concentration response analyses, the highest concentration of the chemical compound at which a measurable toxic effect of the chemical compound is not observable, i.e. NOEL, is determined and the Ctox is identified as the concentration that correlates to the NOEL. In choosing the concentrations of the compound for analysis, one of skill in the art should devise a dose response regimen which is selected to provide an indication of cell health at concentrations of at least two concentration values higher than the Ctox concentration.
The results are summarized in Tables 14-17 and in FIGS. 83-102. Table 14 compares the test compound TC50 values for each assay endpoint. Test compounds are rank-ordered from most to least toxic based on their TC50 values and overall shape of the response curves. The Ctox value, or estimated sustained blood concentration where toxicity would first be expected to occur in a rat 14-day repeated dose study, is also included in this table. Negative and positive controls are included with every run. Assay response is continually monitored to assure reliable results. […] Table 15 summarizes oxidative stress and apoptosis data, Table 16 summarizes the solubility data, and Table 17 provides information on interaction with PgP.
The Ctox value was developed using 24 hr in vitro (H4IIE) toxicity data and was validated by retrospectively evaluating compounds across different classes of drugs in 14-day rat studies in which compounds were administered on a daily basis and pharmacokinetic data was available. […] Thus, Ctox values are only determined for the 24 hr in vitro results. In this example, Ctox values could not be estimated due to low toxicity in most of the cell lines.

| Structure (SMILES) | CC50 at 6 h [1] | CC50 at 24 h [1] | Predicted Ctox (NHEM cells) |
| --- | --- | --- | --- |
| CC[C@@]1(O)C(=O)OCc2c1cc1n(c2=O)Cc2cc3ccccc3nc2-1 [CAMPTOTHECIN, Camptothecin] | 300 µM | 100 µM | 33 µM |
| C=C(C)[C@H]1Cc2c(ccc3c2O[C@@H]2COc4cc(OC)c(OC)cc4[C@@H]2C3=O)O1 [ROTENONE, Rotenone] | 10 µM | 10 µM | 10 µM |

— US7615361B2, “Toxicity screening methods” (Ceetox, Inc., priority 2006, dated 2009)
